Data on three compounds can be found in patent US20190298840A1, “FORMULATIONS COMPRISING HETEROCYCLIC RING SYSTEMS AND USES THEREOF” (Particle Sciences, Inc., priority 2016, published 2019).

One assay has as its system IgG. The experiment in a line: IgG binding experiment, free IgG measured after overnight binding (FIG. 10). Also on record: species or system human. The conditions noted are these: PBS and water conditions.
For a further assay, the system named is rabbit IgG. The experiment in a line: ELISA with pyridinium-biotin construct on IgG coated, BSA blocked wells vs BSA only wells (FIG. 20). The format is binding. The conditions noted are these: PBS buffer; femtomole range of construct; avidin-HRP detection. The text has this:
Another variation of ELISA assay is one in which the plate wells are first coated with rabbit IgG. After a wash with PBS buffer, the IgG coated wells are blocked with bovine serum albumin (BSA) to saturate the remaining surface of the wells in order to lower background noise. A set of control wells are coated and blocked with BSA only as described above. The IgG coated and BSA blocked wells are then reacted with pyridinium-biotin construct in PBS buffer. Increasing amounts of with pyridinium-biotin construct in femtomole range are added in different wells. Those wells are washed with PBS buffer and reacted with constant amount of avidin-Horseradish peroxidase (HRP) in PBS. The colorimetric product of the reaction is then detected by an ELISA plate reader.
Background: ELISA stands for enzyme-linked immunosorbent assay.

Assay [1] has as its target human serum albumin (HSA) (Homo sapiens, UniProt P02768). As to the kind of experiment: Microscale thermophoresis binding affinity with HSA (Monolith NT.115). The conditions noted are these: construct 500 nM, HSA 125 μM-3.5 nM, compared with IgG. The protocol:
(§1) Binding affinities of pyridinium constructs with macromolecules were measure using Monolith NT.115 system developed by Nano Temper technology (https://nanotempertech.com/monolith/). The Monolith NT.115 equipment measures the strength of the interactions between a fluorescently labeled or intrinsically fluorescent sample and a binding partner such as a macromolecule are measured while a temperature gradient is applied over time. The molecular mobility of a fluorescently labeled construct in a thermo gradient when alone and in presence of increasing concentrations of binding partner is compared. From this, binding affinity (Kd) is calculated from a fitted curve that plots normalized fluorescence against concentration of ligand.
(§2) The IgG protein was tested at a concentration range of 12.5 μM-350 pM and the pyridinium-fluorescein construct was at a concentration of 500 nM. Likewise, for experiments involving HSA, the HSA protein was at a concentration range of 125 μM-3.5 nM and the pyridinium-fluorescein construct was at a concentration of 500 nM.
The experiment was repeated with human serum albumin (HSA) instead of IgG under similar conditions. The results of the binding affinity curve at increasing concentrations of HSA in two different solutions (PBS & Saline) are shown in FIG. 17.
On the technique in general: MST reads how a fluorescent partner responds to local heating, with and without ligand.

The target of the next assay is Immunoglobulin G (IgG). As to the kind of experiment: Microscale thermophoresis binding affinity with IgG (Monolith NT.115). The note with it: construct 500 nM, IgG 12.5 μM-350 pM. The protocol: as §1
The experiment was conducted to measure the binding affinity of the pyridinium construct containing fluorescein with increasing concentrations of Immunoglobulin G (IgG) in presence of PBS buffer and saline. The results of the binding affinity curve at increasing concentrations of IgG in two different solutions (PBS & Saline) are shown in FIG. 16.
as §2

In general, Kd refers to the concentration at which binding is half-saturated. High values mean a looser complex, low ones a tighter complex.

Sequence of human serum albumin (HSA) (P02768 25-609): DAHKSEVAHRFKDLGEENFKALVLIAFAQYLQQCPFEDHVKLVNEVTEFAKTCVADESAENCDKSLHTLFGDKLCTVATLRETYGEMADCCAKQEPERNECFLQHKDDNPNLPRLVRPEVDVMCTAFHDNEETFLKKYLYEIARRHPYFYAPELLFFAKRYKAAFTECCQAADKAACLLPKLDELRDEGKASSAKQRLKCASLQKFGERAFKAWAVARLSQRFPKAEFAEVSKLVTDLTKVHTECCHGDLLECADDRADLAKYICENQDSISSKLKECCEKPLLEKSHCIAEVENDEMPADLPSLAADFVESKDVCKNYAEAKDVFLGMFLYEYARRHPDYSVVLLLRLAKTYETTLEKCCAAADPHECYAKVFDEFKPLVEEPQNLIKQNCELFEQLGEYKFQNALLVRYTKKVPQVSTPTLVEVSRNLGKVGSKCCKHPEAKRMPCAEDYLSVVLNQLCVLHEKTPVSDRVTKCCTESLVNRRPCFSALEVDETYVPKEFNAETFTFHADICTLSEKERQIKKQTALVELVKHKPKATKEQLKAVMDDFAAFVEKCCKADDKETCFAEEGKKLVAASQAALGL

Consider `CCCCCCCCCCCCCCCC[N+](C)(C)C.[Br-]` [CTAB, Cetyl trimethylammonium bromide], for which, in the assay on IgG, the “binding to IgG” value was “did not bind to the IgG protein”.
As for `O=C(CCCCC1SCC2NC(=O)NC21)NCC[n+]1ccccc1` (stereo not drawn) [pyridinium constructs, 1-(2-(5-(2-oxohexahydro-1H-thieno[3,4-d]imidazol-4-yl)pentanamido)ethyl)pyridinium], the “binding affinity in ELISA, IgG vs BSA dilution curves” value with rabbit IgG is recorded as “strong binding affinity of IgG even at lower concentrations when compared with that of BSA”.
`O=C(NCC[n+]1ccccc1)c1ccc2c(c1)C1(OC2=O)c2ccc(O)cc2Oc2cc(O)ccc21` [pyridinium-fluorescein construct, 1-(2-(3′,6′-dihydroxy-3-oxo-3H-spiro[isobenzofuran-1,9′-xanthene]-6-ylcarboxamido)ethyl)pyridinium]: the “binding affinity to HSA” value in assay [1] (PBS solution) is “much lower than that of IgG”; in assay [1] (saline solution), “comparable to that of IgG”. For the same compound, the Kd on Immunoglobulin G (IgG) (in PBS) is 20 nM; at Immunoglobulin G (IgG) (in saline), 1500 nM.
